Patent US12465605B2, “Methods and materials for gender-dependent treatment of cardiovascular dysfunction” (Mayo Foundation for Medical Education and Research, priority 2019, dated 2025)

Assays:
Format in all cases: cell-based
[1] = system: LPA-induced BMP signaling; assay: LPA-induced BMP signaling (Osterix mRNA) in aortic valve interstitial cells; settings: treatment with 18:0 lyso-PA alone
Protocol: (§1) In vitro cell culture studies: Aortic valve interstitial cells were isolated using an outgrowth method, and were expanded in DMEM/F-10 medium with 10% FBS and studied in passages 2-10. Cells were treated for 24 hours under each experimental condition, at which point mRNA was harvested using lysis buffer. After mRNA isolation and reverse transcription, gene expression was measured using quantitative real-time RT-PCR and Taqman primers. Changes in gene expression were assessed by the ddCt method and expressed as fold-change normalized to control conditions.
Additional studies were conducted in aortic valve interstitial cells to examine the effects of ataciguat on LPA-induced BMP signaling and BMP target gene expression. Cells were treated with 18:0 lyso-PA, with or without ataciguat, and Osterix mRNA levels were determined.

[2] = system: Osterix (BMP target gene); assay: Osterix mRNA in aortic valve interstitial cells treated with sGC agonists; settings: for Osterix expression: 24 hours
Protocol: as §1
In vitro studies were conducted in aortic valve interstitial cells to determine the effects of several sGC agonists on mRNA levels of Osterix, a BMP target gene. Cells were treated with nelociguat, vericiguat, lificiguat, or BAY41-8543, and Osterix mRNA levels were determined. Nelociguat and BAY41-8543 were used at concentrations ranging from 1 nM to 10 μM, while vericiguat and lificiguat were used at concentrations ranging from 1 nM to 1 μM.

sGC = target: T1, sGC (Mus musculus, UniProt O54865); assay: sGC signaling (phospho-VASP239) in mouse aortic valve interstitial cells; settings: otherwise naïve mVICs, vs vehicle-treated cells
T1 construct: endogenous in cells; host or cells: primary mouse aortic valve interstitial cells (mVICs) from C57BL6/J mice
T1 sequence (O54865 1-620): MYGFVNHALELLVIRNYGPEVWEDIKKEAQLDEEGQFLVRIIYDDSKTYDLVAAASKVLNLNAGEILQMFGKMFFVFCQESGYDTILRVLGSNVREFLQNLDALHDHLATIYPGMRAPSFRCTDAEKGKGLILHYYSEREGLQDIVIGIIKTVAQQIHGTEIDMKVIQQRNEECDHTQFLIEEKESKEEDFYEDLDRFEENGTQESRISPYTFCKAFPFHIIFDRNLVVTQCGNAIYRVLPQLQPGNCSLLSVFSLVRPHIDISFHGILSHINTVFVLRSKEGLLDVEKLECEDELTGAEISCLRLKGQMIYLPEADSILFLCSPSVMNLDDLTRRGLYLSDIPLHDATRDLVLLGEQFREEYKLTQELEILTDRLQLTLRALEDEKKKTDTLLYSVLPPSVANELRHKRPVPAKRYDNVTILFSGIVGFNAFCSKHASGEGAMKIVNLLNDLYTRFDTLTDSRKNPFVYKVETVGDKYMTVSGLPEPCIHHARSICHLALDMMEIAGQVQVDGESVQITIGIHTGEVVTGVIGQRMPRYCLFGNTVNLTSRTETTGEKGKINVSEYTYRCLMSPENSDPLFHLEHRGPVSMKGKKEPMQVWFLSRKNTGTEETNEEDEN
T1 sequence (Q9ERL9 1-691 partner): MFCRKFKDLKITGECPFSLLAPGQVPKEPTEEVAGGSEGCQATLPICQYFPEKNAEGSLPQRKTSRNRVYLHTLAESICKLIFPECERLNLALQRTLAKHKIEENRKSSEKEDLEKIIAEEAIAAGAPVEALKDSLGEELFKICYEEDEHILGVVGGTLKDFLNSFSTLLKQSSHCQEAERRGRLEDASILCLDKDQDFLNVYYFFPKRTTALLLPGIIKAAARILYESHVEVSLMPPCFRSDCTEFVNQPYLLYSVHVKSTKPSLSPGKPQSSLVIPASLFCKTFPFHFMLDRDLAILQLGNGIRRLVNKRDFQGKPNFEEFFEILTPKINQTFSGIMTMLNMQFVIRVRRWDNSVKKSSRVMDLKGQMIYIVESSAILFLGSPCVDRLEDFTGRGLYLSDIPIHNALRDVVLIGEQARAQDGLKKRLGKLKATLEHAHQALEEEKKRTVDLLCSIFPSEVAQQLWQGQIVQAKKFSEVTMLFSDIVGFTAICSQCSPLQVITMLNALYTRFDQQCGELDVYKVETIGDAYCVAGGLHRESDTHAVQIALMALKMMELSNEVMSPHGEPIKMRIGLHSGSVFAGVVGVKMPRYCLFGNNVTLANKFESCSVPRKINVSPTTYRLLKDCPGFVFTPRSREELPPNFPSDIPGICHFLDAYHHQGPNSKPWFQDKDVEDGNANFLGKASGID
Protocol: To confirm that ataciguat effectively activated sGC in cells, mouse aortic valve interstitial cells (mVICs) were isolated from C57BL6/J mice treated with ataciguat or other sGC agonists as internal controls. […] To determine whether ataciguat could attenuate signaling cascades central to the initiation and progression of valve calcification in vitro, cells were treated with BMP2 with or without ataciguat. In these studies, ataciguat reduced phospho-SMAD1/5/8 signaling (e.g., canonical BMP signaling) as well as expression of osteogenic genes induced by BMP2 (e.g., osterix).

Compound: lysophosphatidic acid [18:0 lyso-PA]
- expression of Osterix [1]: increased expression

Compound: COC(=O)Nc1c(N)nc(-c2nn(Cc3ccccc3F)c3ncccc23)nc1N [nelociguat, methyl (4,6-diamino-2-(1-(2-fluorobenzyl)-1H-pyrazolo[3,4-b]pyridin-3-yl)pyrimidin-5-yl)carbamate]
- concentration that may be cytotoxic ([2]; suggested from loss of effect at the highest concentration): ≥ 10 µM

Compound: CCN(CC)/[N+]([O-])=N/O.CCNCC [DEA-NONOATE]
- sGC-dependent signaling (phospho-VASP^239 levels) (sGC): increased phospho-VASP^239 levels to a similar extent

Compound: OCc1ccc(-c2nn(Cc3ccccc3)c3ccccc23)o1 [lificiguat]
- Osterix expression ([2]; tested 1 nM to 1 μM): lose efficacy at higher concentrations

Compound: Nc1nc(-c2nn(Cc3ccccc3F)c3ncccc23)nc(N)c1N1CCOCC1 [BAY41-8543, 2-[1-[(2-fluorophenyl)methyl]-1H-pyrazolo[3,4-b]pyridin-3-yl]-5-(4-morpholinyl)-4,6-pyrimidinediamine]
- Osterix expression ([2]; at 10 μM): highly efficacious
- Osterix expression ([2]; tested 1 nM to 10 μM): dose-dependent reductions

Compound: COC(=O)Nc1c(N)nc(-c2nn(Cc3ccccc3F)c3ncc(F)cc23)nc1N [vericiguat, methyl (4,6-diamino-2-(5-fluoro-1-(2-fluorobenzyl)-1H-pyrazolo[3,4-b]pyridin-3-yl)pyrimidin-5-yl)carbamate]
- Osterix expression ([2]; tested 1 nM to 1 μM): only at the highest dose tested
